Laboratory results taken from the NIST ThermoML archive (doi:10.1021/acs.jced.8b00202).

Details: Liquid, Frequency=8 MHz, Dual path-length method

CC(C)C [2-methylpropane]
Details	speed of sound [m/s]
199.99 K, 409.39 kPa	1393.6
199.99 K, 599.71 kPa	1394.9
199.99 K, 1103.6 kPa	1398.1
199.99 K, 2104.3 kPa	1404.5
199.99 K, 3104.9 kPa	1410.8
199.99 K, 4105.7 kPa	1417.1
199.99 K, 5106.3 kPa	1423.3
199.99 K, 6107 kPa	1429.4
199.99 K, 7107.8 kPa	1435.5
199.99 K, 8108.5 kPa	1441.5
199.99 K, 9109.1 kPa	1447.5
199.99 K, 10110 kPa	1453.4
199.99 K, 12612 kPa	1467.8
199.99 K, 15113 kPa	1482
199.99 K, 17615 kPa	1495.8
199.99 K, 20117 kPa	1509.3
199.99 K, 25120 kPa	1535.6
199.99 K, 30124 kPa	1560.8
199.99 K, 35128 kPa	1585.2
199.99 K, 40131 kPa	1608.7
199.99 K, 45134 kPa	1631.5
199.99 K, 50138 kPa	1653.5
199.99 K, 60145 kPa	1695.8
199.99 K, 70152 kPa	1735.8
199.99 K, 80158 kPa	1773.8
200 K, 90166 kPa	1810.1
200 K, 100173 kPa	1844.9
220 K, 1103.2 kPa	1276.9
220 K, 2103.8 kPa	1284.3
220 K, 3102.9 kPa	1291.5
220 K, 3104.4 kPa	1291.5
220 K, 4105.1 kPa	1298.6
220 K, 5105.2 kPa	1305.7
220 K, 6106 kPa	1312.7
220 K, 7106.6 kPa	1319.5
220 K, 8107.3 kPa	1326.3
220 K, 9108 kPa	1333
220 K, 10109 kPa	1339.7
220 K, 10110 kPa	1339.7
220 K, 12610 kPa	1356
220 K, 15112 kPa	1371.8
220 K, 17614 kPa	1387.2
220 K, 20116 kPa	1402.2
220 K, 20117 kPa	1402.2
220 K, 25119 kPa	1431.2
220 K, 30123 kPa	1459
220 K, 30124 kPa	1459
220 K, 35126 kPa	1485.6
220 K, 40130 kPa	1511.2
220 K, 40131 kPa	1511.2
220 K, 45134 kPa	1535.8
220 K, 50137 kPa	1559.7
220 K, 60144 kPa	1605.2
220 K, 70151 kPa	1648
220 K, 80158 kPa	1688.5
220 K, 90165 kPa	1727
220 K, 100172 kPa	1763.8
240 K, 402.14 kPa	1153
240 K, 402.77 kPa	1153
240 K, 602.82 kPa	1154.8
240 K, 1103.6 kPa	1159
240 K, 2103.9 kPa	1167.5
240 K, 2104.3 kPa	1167.5
240 K, 3104.9 kPa	1175.8
240 K, 4105.7 kPa	1184
240 K, 5106.3 kPa	1192.1
240 K, 6107.2 kPa	1200
240 K, 7108 kPa	1207.8
240 K, 8108.1 kPa	1215.5
240 K, 8109.3 kPa	1215.5
240 K, 9110.1 kPa	1223.1
240 K, 10111 kPa	1230.6
240 K, 12613 kPa	1248.8
240 K, 15113 kPa	1266.5
240 K, 15114 kPa	1266.5
240 K, 17616 kPa	1283.7
240 K, 20118 kPa	1300.3
240 K, 25121 kPa	1332.3
240 K, 30124 kPa	1362.6
240 K, 30125 kPa	1362.6
240 K, 35128 kPa	1391.6
240 K, 40132 kPa	1419.3
240 K, 45135 kPa	1445.9
240 K, 50139 kPa	1471.5
240 K, 60146 kPa	1520.1
